# According to patent US12064408B2, “Compounds for the treatment of obesity and methods of use thereof” (The Children's Medical Center Corporation, priority 2012, dated 2024):
# B1: leptin: peptide hormone regulating food intake and body weight; injected ip dissolved in saline (protein, UniProt P41160 22-167, looked up)
# Leptin: VPIQKVQDDTKTLIKTIVTRINDISHTQSVSAKQRVTGLDFIPGLHPILSLSKMDQTLAVYQQVLTSLPSQNVLQIANDLENLRDLLHLLAFSKSCSLPQTSGLQKPESLDGVLEASLYSTEVVALSRLQGSLQDILQQLDVSPEC
# Columns and labels:
# [1] = weight loss products; Sources: FDA 2010, Natural Medicines Comprehensive Database 2010; cited from earlier work
# HFD-fed obese mice [2] = assay: Liver and kidney histology (H&E); format: in vivo; settings: three weeks 100 μg/kg i.p.
# [3] = test system: aspartate transaminase (AST); assay: Serum AST by ELISA; format: in vivo; settings: three weeks 100 μg/kg i.p., HFD-fed obese mice
# Protocol: (§1) To investigate the effect of celastrol administration on liver function, serum levels of alanine transaminase (ALT) and aspartate transaminase (AST) were measured in mice following three weeks of celastrol treatment (100 μg/kg, i.p.). ALT and AST were measured using an enzyme-linked immunosorbent assay (ELISA) kit (from Bio Scientific).
# [4] = test system: alanine transaminase (ALT); assay: Serum ALT by ELISA; format: in vivo; settings: three weeks 100 μg/kg i.p., HFD-fed obese mice
# Protocol: as §1
# mice = assay: Locomotor activity (Columbus Instruments Comprehensive Lab Animal Monitoring System); format: in vivo
# Protocol: Locomotor activity was also normal in celastrol-treated mice. This is consistent with celastrol not having a toxic effect causing anorexia and weight loss, since the latter would be associated with decreased locomotor activity.
# FIGS. 16A and 16B are graphs showing x (FIG. 16A) and y (FIG. 16B) direction ambulatory motion for control and celastrol in dark and light cycles. Toxicity was evaluated using Columbus Instruments Comprehensive Lab Animal Monitoring System we have measure the locomotor activity of the animals.
# lean mice = assay: Leptin injection upon acute celastrol treatment, lean mice; format: in vivo; settings: 6-hour time point, leptin 10 mg/kg ip, DMSO or celastrol 100 μg/kg ip pre-treatment
# Protocol: (§2) It was therefore hypothesized that celastrol exerts anti-obesity effects through increasing leptin sensitivity in the brains of the HFD-fed obese mice. To test this hypothesis, leptin was administered to celastrol- or vehicle-treated HFD-fed obese animals. To avoid any possible leptin sensitizing effect of weight loss or decreased food intake created by celastrol administration, leptin injections were carried out upon acute celastrol treatment as described below.
# (§3) Lean and HFD-fed obese mice were divided into four groups: 1) DMSO+saline, 2) DMSO+leptin, 3) celastrol+saline, and 4) celastrol+leptin (n=3 per group). Mice were injected (ip) with 100 μg/kg celastrol or vehicle (DMSO) one hour before dark cycle (day zero). 24 hours later, mice were injected for a second time with celastrol or DMSO (day 1), and all animals were then taken to 24 hour-fasting. On day two, at 21 hours of fasting, mice received a final injection of DMSO or celastrol. 30 minutes prior to dark cycle, at 23.5 hour of fasting, mice received a single ip injection of leptin (10 mg/kg, dissolved in saline), or saline. […] 1, 3, 6, 15, and 24-hour food intake and 24-hour body weight changes were recorded (FIG. 7A). […] This is clearly evident when food intake of the celastrol-treated mice is calculated in percent values (FIG. 7B). […]
# HFD-fed obese mice [5] = assay: Leptin injection upon acute celastrol treatment, HFD-fed obese mice; format: in vivo
# Protocol: as §2, §3
molecule,measurement,setting,value
Conjugated linoleic acid [Conjugated linoleic acid (CLA)],Safety,[1],Possibly safe
CC1=C(O)C(=O)C=C2C1=CC=C1[C@@]2(C)CC[C@@]2(C)[C@@H]3C[C@](C)(C(=O)O)CC[C@]3(C)CC[C@]12C [celastrol],kidney morphology,HFD-fed obese mice [2],no detectable change
same,AST levels,[3],decreases
same,ALT levels,[4],decreases
same,locomotor activity,mice; celastrol-treated mice,normal
same,x and y direction ambulatory motion counts,"mice; dark and light cycles, versus control",not significantly different
same,visible sign of sickness and toxicity,mice; drug treated mice,do not show any visible sign
[Cr] [Chromium],Safety,[1],Likely safe
B1,decrease in food intake upon leptin injection,lean mice,approximately 40%
same,decrease in food intake upon leptin injection,"HFD-fed obese mice [5]; 6-hour time point, leptin 10 mg/kg ip, DMSO or celastrol 100 μg/kg ip pre-treatment",approximately 40%
same,24-hour body weight change,HFD-fed obese mice [5]; 24 hour ad libitum feeding period after 24-hour fasting,resistant
